# US20200377568A1, “Novel IL-4-/IL-13-derived peptide compounds for the treatment or prevention of neurodegenerative or neuroinflammatory diseases” (Universitätsmedizin der Johannes Gutenberg-Universität Mainz, priority 2018, published 2020)
# How the values were obtained:
# [1] = test system: hippocampal cell line HT22; assay: CellTiter-blue cell viability assay (ctb), hippocampal cell line; format: cell-based; details: HT22 cells, increasing concentrations, FIG. 2B
# Description: Toxicity was checked by subjecting mouse embryonic fibroblasts (Mef) and the hippocampal cell line HT22 to a CellTiter-blue cell viability assay (ctb).
# Mouse embryonic fibroblasts (Mef) (Sigma-Aldrich) and hippocampal HT22 (ThermoScientific) cells were cultured according to the manufacturer's protocols. Ctb assays were performed according to the manufacturer's protocols (Promega).
# [2] = test system: immune cells isolated from central nervous system (CNS); assay: FACS of immune cells from CNS of EAE mice after nasal treatment; format: in vivo, mouse; details: CNS (brain and spinal cord), intranasal treatment of EAE mice
# Description: (§1) A-B: Effects of incubation with IL-4 and different concentrations of Link4 and Link13 on the differentiation of A: CD11b^+ bone marrow-derived macrophages (BMDMs) into F80^+CD206^+ cells, and B: CD4^+ T cells into Gata3^+ cells. C-D: FACS results for different populations of T cells and CD11b^+MHCII^+ monocytes/macrophages/microglia of immune cells isolated from C: spleen and D: central nervous system (CNS) of EAE mice treated with PBS, IL-4 or Link4.
# Subsequently, the effects of IL-4 and Link4 on immune cells were analysed when applied intranasally, similarly as in FIG. 3B. Since nasally applied treatments can enter the periphery (lungs, blood stream) it was of utmost importance to check whether the substances affected the lymphocyte populations in the spleen. A reduction was found of CD8^+ cytotoxic T-cells for Link4, whereas all CD4^+ T helper cell types were unchanged. The CD11 b+MHCII+ population of monocytes/macrophages was also not changed.
# CNS and spleens were removed from EAE mice treated with nasal IL-4, Link4 or PBS at d35 and immune cells were isolated as previously described (M. Paterka, J. O. Voss, J. Werr, E. Reuter, S. Franck, T. Leuenberger, J. Herz, H. Radbruch, T. Bopp, V. Siffrin, and F. Zipp, Dendritic cells tip the balance towards induction of regulatory T cells upon priming in experimental autoimmune encephalomyelitis. J Autoimmun 67, 108-114 (2017)). […]
# [3] = test system: CD11b+ bone marrow-derived macrophages (BMDMs); assay: Differentiation of bone marrow-derived macrophages; format: cell-based, mouse; details: different concentrations, FIG. 4A
# Description: as §1
# In order to investigate whether Link4 and Link13 are able to modulate immune cells, in vitro assays were performed on bone marrow-derived macrophages (BDMBs) and on naïve T cells.
# Murine BMDMs were isolated from adult C57BL/6 mice. The tibia and femur bones were flushed with sterile PBS and the bone marrow was collected in washing medium. After filtering the cell suspension trough a 100 μm nylon mesh, the cells were centrifuged (5 min, 550 g, 4° C.) and resuspended in mouse medium (10% FCS, 1% P/S, 1% L-glutamine, 0.1% β-mercaptoethanol, 1% HEPES in RPMI buffer). For the in vitro generation of BMDMs cells were plated in 6 well-plates and exposed to 20 ng/ml Macrophage […] (M-CSF) for 4 days. For the activation of the cells, Dexametason (5×10^−7M), LPS (10 μg/ml) and IL-4 (10 ng/ml) were added to the culture for the following 3 days.
sequence,measurement,setting,value
RARSEIIGIGSKSIMQMDY (listed as Mus musculus) [Link4],toxic effects on hippocampal neurons (cell viability),[1],no toxic effects
same,IL-10+ cells,[2],significant rise
same,differentiation of CD11b+ BMDMs into F80+CD206+ cells,[3],did not occur
